Laboratory results from patent publication US7897732B2, “Antibodies to heparin-binding growth factor (HBGF) polypeptides” (Childrens Hospital Research Foundation, priority 1997, dated 2011).

Columns and labels:
[1] = [3H]heparin binding of synthetic CTGF polypeptides on nitrocellulose dot-blot; details: 37.5 nmol polypeptide on nitrocellulose, 10 μCi/ml [3H]heparin, room temperature
From the text: Eighteen synthetic polypeptides spanning the entire 103 C-terminal residues of CTGF were synthesized and received as a cleaved PepSet™ from Chiron Mimotopes (Clayton, Victoria, Australia). All polypeptides were synthesized with acetylated N-termini and amidated C-termini except CTGF-(247-255) and CTGF-(247-260), which were synthesized with free N-terminal amines, and CTGF-(326-349) and CTGF-(339-349), which were synthesized with acid C-termini (Table 3).
All polypeptides contained one or no Cys residues; Cys^292 in CTGF(285-292) and Cys^325 in CTGF-(318-328) were replaced with Ser to prevent intra-chain disulfide bridging to Cys^287 or Cys^323 within the respective polypeptides. Heparin-binding properties were determined using an adaptation of the method of Baird et al. (Baird, A., et al. Proc. Natl. Acad. Sci. U.S.A. 85, 2324-2328(1988)). Briefly, 37.5 nmol of each polypeptide were absorbed in duplicate to nitrocellulose using a dot-blot apparatus. The blot was blocked for 30 min. with 10 mM Tris-HCl, 0.15 M NaCl, 0.1% bovine serum albunin (pH 7.4) and then incubated for 3 hr. at room temperature in this solution containing 10 μCi/ml [^3H]heparin (NEN Life Science Products). The blot was washed four times with 10 mM Tris-HCl, 0.15 M NaCl, and individual dots were mixed with scintillation fluid for counting of [^3H].

[2] = tested on: bovine capillary endothelial cells (BCECs); experiment: BCEC DNA synthesis assay; type: cell-based
Experimental: (§1) Target cell specificity was studied using Balb/c 3T3 cells, bovine capillary endothelial cells (BCECs), and vascular smooth muscle cells. 3T3 cells were utilized as described above. BCECs were obtained from Dr. J. Folkman (Children's Hospital, Boston, Mass.) and were maintained in gelatinized culture flasks in Dulbecco's modified Eagle's medium containing 3 ng/ml bFGF and 10% heat-inactivated bovine calf serum. Smooth muscle cells were isolated from a 2-3-cm length of pig thoracic aorta using established procedures (Weich, H. A., et al., Growth Factors 2, 313-320 (1990)) and maintained in 10% Dulbecco's modified Eagle's medium, 10% fetal bovine serum. BCEC and smooth muscle cell DNA synthesis assays were performed in 48- or 96-well plates essentially as described (Besner, G. E., Higashiyama, S., and Kagsbrun, M. Cell Regul. 1, 811-819 (1990)). BCEC DNA synthesis assays were also performed in the presence of 100 μg/ml porcine heparin.

[3] = tested on: Balb/c 3T3 fibroblasts; experiment: DNA synthesis ([3H]thymidine incorporation) assay in confluent quiescent Balb/c 3T3 cells; type: cell-based; details: for [3H]Thymidine incorporation (mean ± S.D.): Balb/c 3T3 fibroblasts
Experimental: To assess the relative mitogenic capability of HBGFs with IGF-1, EGF, bFGF, and PDGF-AB, DNA synthesis assays on 3T3 cells were performed (Table 4). Biologically active fractions containing the 0.3-0.6 M NaCl eluate from the Bio-Rex column were pooled, diluted 3-fold with 20 mM Tris-HCL (pH 7.4) containing 0.1% CHAPS, passed through a 0.45-μm membrane filter, placed in a siliconized polypropylene vessel, and applied with a peristaltic pump to an EconoPac heparin column (0.7×3.6 cm; Bio-Rad) at 2 ml/min. The heparin column was then washed with 50 ml of 20 mM Tris-HCl buffer, 0.2 M NaCl, 0.1% CHAPS and developed at 1 ml/min with a 40 ml gradient of 0.1-2.0 M NaCl in 20 mM Tris-HCl, 0.1% CHAPS (pH 7.4) using a fast protein liquid chromatography (FPLC) system (Pharmacia Biotech Inc.). Fractions (1 ml) were collected into siliconized tubes during NaCl gradient elution and tested for 3T3 cell mitogenic activity. Column fractions were tested for their ability to stimulate DNA synthesis as measured by [^3H]thymidine incorporation into the DNA of confluent quiescent Balb/c 3T3 cells grown in 200 μl of Dulbecco's modified Eagle's medium, 10% bovine calf serum in 96-well culture plates as described (Kim, G. Y., et al., Biol. Reprod. 52, 561-571 (1995)). Dose-response curves to purified growth factors from ULF were established by assaying each dose in triplicate, with data computed as mean±S.D. Statistical significance of the effects of 1-100 μg/ml porcine heparin (Sigma) on growth factor activity was determined by Students' t test.

[4] = tested on: Vascular smooth muscle cells; experiment: Smooth muscle cell DNA synthesis assay; type: cell-based, pig; details: 3 ng/ml
Experimental: as §1

Substance | [3H]Heparin bound (mean ± S.D.) [1] [cpm/μg] | further results
ACHYN [CTGF-(324-328)] | 9 ± 1 | 
CTPHRTTTLPVEFK (Ac-CTPHRTTTLPVEFK-NH2) [CTGF-(293-306)] | 9 ± 1.1 | 
EENIKKGKK [CTGF-(247-255)] | 10 ± 0.3 | 
EENIKKGKKCIRTP [CTGF-(247-260)] | 836 ± 1 | 
FKCPDGEVMKKNMMFIKT (Ac-FKCPDGEVMKKNMMFIKT-NH2) [CTGF-(305-322)] | 237 ± 22 | 
GVCTDGR (Ac-GVCTDGR-NH2) [CTGF-(285-291)] | 7 ± 0.3 | 
GVCTDGRS (Ac-GVCTDGRS-NH2) [Ser^292 CTGF-(285-292)] | 8 ± 0.4 | 
HYNCPGDNDIFESLYYRKMYGDMA (Ac-HYNCPGDNDIFESLYYRKMYGDMA-OH) [CTGF-(326-349)] | 10 ± 1 | 
IRTPKISKPIKFELSG (Ac-IRTPKISKPIKFELSG-NH2) [CTGF-(257-272)] | 70 ± 13 | 
LYYRKMYGDMA (Ac-LYYRKMYGDMA-OH) [CTGF-(339-349)] | 9 ± 0.5 | 
MFIKTCA (Ac-MFIKTCA-NH2) [CTGF-(318-324)] | 475 ± 116 | 
MFIKTCASHYN (Ac-MFIKTCASHYN-NH2) [Ser^325 CTGF-(318-328)] | 601 ± 40 | 
PDGEVMKKNMMFIKT (Ac-PDGEVMKKNMMFIKT-NH2) [CTGF-(308-322)] | 71 ± 2 | 
PGDNDIFESLY (Ac-PGDNDIFESLY-NH2) [CTGF-(330-340)] | 10 ± 0.5 | 
TPHRTTTLPVEFK (Ac-TPHRTTTLPVEFK-NH2) [CTGF-(294-306)] | 11 ± 0.4 | 
TPKISKPIKFELSGCTS (Ac-TPKISKPIKFELSGCTS-NH2) [CTGF-(259-275)] | 124 ± 3 | 
TSMKTYRAKF (Ac-TSMKTYRAKF-NH2) [CTGF-(274-283)] | 388 ± 12 | 
TSMKTYRAKFCGV (Ac-TSMKTYRAKFCGV-NH2) [CTGF-(274-286)] | 1108 ± 119 | 
aFGF: acidic fibroblast growth factor |  | [3H]Thymidine incorporation (mean ± S.D.) ([2]; 3 ng/ml): 603 ± 46 Cpm/well; [3H]Thymidine incorporation (mean ± S.D.) ([2]; 3 ng/ml + 100 μg/ml heparin): 2,232 ± 236 Cpm/well
basic fibroblast growth factor [bFGF] |  | [3H]Thymidine incorporation (mean ± S.D.) ([2]; 3 ng/ml): 2,865 ± 276 Cpm/well; [3H]Thymidine incorporation (mean ± S.D.) ([2]; 3 ng/ml + 100 μg/ml heparin): 1,840 ± 4 Cpm/well; [3H]Thymidine incorporation (mean ± S.D.) ([3]; 10 ng/ml): 73,853 ± 3,122 Cpm/well; [3H]Thymidine incorporation (mean ± S.D.) [4]: 3,082 ± 374 Cpm/well
epidermal growth factor [EGF, reference compound] |  | [3H]Thymidine incorporation (mean ± S.D.) ([3]; 30 ng/ml): 11,550 ± 101 Cpm/well; [3H]Thymidine incorporation (mean ± S.D.) [4]: 1,343 ± 378 Cpm/well
heparin [reference compound] |  | [3H]Thymidine incorporation (mean ± S.D.) ([2]; 100 μg/ml): 240 ± 52 Cpm/well; Effect on basal or calf serum-stimulated DNA synthesis in 3T3 cells ([3]; 1-100 μg/ml heparin): no effect
insulin-like growth factor [IGF-1, reference compound] |  | [3H]Thymidine incorporation (mean ± S.D.) ([3]; 30 ng/ml): 4,412 ± 170 Cpm/well
platelet-derived growth factor [PDGF-AB, reference compound] |  | [3H]Thymidine incorporation (mean ± S.D.) ([3]; 30 ng/ml): 110,110 ± 7,077 Cpm/well
